Values quoted from earlier work in patent US6338847B1, “Compositions and methods to disinfect contact lenses” (Allergan, priority 1993, dated 2002).

B1: lysozyme (protein, UniProt P61626 19-148, looked up)
Lysozyme C: KVFERCELARTLKRLGMDGYRGISLANWMCLAKWESGYNTRATNYNAGDRSTDYGIFQINSRYWCNDGKTPGAVNACHLSCSALLQDNIADAVACAKRVVRDPQGIRAWVAWRNRCQNRDVRQYVQGCGV
notes: cellulose and/or chitin decomposing enzyme component; a primary tear protein

Tested on: cyst form of acanthamoeba

Row | Molecule | survival of cysts exposed to hydrogen peroxide (exposed for two hours) | time to killing all the cysts (lysozyme included in the hydrogen peroxide solution)
1 | OO [hydrogen peroxide] | survived after two weeks | 
2 | B1 |  | ≤ 30 min
